Here are results for one compound from ChEMBL document CHEMBL5390264, “Exploring Fatty Acid Mimetics as NR4A Ligands” (J Med Chem, 2023).

Activity calls are given as the source filed them. The calls are words filed in the database; no cut-off is given here.

Experiment [1] addresses Nuclear receptor subfamily 4immunitygroup A member 1 (Homo sapiens, UniProt P22736). As to the kind of experiment: Agonist activity at human Nur77 LBD transiently transfected in HEK293T cells assessed as maximal activation incubated for 16 hrs by Gal4-hybrid reporter gene based Dual-glo luciferase assay relative to control. Format: cell-based. The following applies: filed as agonist. (A reporter such as luciferase makes a cellular process visible.)

In experiment [2] the target is T1, Nuclear receptor subfamily 4 group A member 2 (Homo sapiens, UniProt P43354). As to the kind of experiment: Agonist activity at human Nurr1 LBD transiently transfected in HEK293T cells incubated for 16 hrs by Gal4-hybrid reporter gene based Dual-glo luciferase assay. Format: cell-based. The following applies: read-out: EC50.
T1 sequence (P43354 whole entry, the tested form may be a part): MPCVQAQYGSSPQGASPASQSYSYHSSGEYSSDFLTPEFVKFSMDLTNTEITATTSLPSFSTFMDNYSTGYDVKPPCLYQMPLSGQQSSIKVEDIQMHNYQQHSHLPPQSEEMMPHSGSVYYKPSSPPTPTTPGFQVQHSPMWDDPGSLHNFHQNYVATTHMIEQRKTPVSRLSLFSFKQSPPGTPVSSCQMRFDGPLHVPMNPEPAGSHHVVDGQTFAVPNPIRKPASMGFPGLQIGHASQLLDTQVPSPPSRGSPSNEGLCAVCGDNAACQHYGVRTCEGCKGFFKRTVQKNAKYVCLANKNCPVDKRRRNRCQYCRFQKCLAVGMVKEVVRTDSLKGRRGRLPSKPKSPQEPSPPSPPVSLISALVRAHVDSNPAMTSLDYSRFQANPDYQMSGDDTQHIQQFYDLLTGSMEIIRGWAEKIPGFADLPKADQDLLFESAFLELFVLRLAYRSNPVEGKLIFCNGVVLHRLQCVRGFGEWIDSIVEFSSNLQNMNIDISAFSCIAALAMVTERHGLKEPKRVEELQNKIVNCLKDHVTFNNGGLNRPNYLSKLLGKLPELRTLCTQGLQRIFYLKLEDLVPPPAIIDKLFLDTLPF
In experiment [3] the target is Nuclear receptor subfamily 4 group A member 3 (Homo sapiens, UniProt Q92570). The experiment in a line: Agonist activity at human NOR-1 LBD transiently transfected in HEK293T cells incubated for 16 hrs by Gal4-hybrid reporter gene based Dual-glo luciferase assay. In kind it is cell-based.
Nuclear receptor subfamily 4 group A member 3, sequence (Q92570 whole entry, the tested form may be a part): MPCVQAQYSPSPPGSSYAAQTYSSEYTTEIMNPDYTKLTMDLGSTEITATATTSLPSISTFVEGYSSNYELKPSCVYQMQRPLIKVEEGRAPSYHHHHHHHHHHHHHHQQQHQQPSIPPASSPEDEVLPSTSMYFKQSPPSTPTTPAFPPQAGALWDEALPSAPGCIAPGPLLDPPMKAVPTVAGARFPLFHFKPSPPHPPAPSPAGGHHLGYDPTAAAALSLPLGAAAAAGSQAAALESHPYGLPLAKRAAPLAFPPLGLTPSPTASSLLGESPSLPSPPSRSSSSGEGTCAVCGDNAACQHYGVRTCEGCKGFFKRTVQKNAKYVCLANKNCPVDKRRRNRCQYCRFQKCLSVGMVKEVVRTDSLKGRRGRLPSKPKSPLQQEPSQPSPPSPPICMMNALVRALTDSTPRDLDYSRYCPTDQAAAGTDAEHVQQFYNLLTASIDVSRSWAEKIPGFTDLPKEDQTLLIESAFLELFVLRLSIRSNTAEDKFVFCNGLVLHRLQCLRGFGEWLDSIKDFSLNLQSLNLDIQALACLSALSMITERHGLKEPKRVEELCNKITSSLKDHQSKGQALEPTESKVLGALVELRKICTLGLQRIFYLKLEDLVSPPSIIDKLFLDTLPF
Experiment [4] has as its target T2, Peroxisome proliferator-activated receptor delta (Homo sapiens) (UniProt Q03181).
T2 sequence (whole entry): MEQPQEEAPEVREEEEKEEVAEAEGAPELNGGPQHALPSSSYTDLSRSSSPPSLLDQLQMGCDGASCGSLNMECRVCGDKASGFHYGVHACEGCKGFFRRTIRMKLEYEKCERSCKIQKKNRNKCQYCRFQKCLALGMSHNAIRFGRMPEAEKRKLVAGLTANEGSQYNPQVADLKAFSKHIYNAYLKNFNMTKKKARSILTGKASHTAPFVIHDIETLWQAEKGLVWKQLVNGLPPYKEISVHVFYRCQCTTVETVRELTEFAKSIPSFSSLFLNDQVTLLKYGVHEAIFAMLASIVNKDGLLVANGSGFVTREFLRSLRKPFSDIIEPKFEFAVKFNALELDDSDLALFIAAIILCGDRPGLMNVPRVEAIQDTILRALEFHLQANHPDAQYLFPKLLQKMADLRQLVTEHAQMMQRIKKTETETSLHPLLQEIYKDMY
The experiment in a line: Agonist activity at PPARdelta LBD (unknown origin) transiently transfected in HEK293T cells at 1 uM incubated for 16 hrs by Gal4-hybrid reporter gene based Dual-glo luciferase assay. In kind it is cell-based.

The target in experiment [5] is T3, Bile acid receptor (Homo sapiens) (UniProt Q96RI1).
T3 sequence (whole entry): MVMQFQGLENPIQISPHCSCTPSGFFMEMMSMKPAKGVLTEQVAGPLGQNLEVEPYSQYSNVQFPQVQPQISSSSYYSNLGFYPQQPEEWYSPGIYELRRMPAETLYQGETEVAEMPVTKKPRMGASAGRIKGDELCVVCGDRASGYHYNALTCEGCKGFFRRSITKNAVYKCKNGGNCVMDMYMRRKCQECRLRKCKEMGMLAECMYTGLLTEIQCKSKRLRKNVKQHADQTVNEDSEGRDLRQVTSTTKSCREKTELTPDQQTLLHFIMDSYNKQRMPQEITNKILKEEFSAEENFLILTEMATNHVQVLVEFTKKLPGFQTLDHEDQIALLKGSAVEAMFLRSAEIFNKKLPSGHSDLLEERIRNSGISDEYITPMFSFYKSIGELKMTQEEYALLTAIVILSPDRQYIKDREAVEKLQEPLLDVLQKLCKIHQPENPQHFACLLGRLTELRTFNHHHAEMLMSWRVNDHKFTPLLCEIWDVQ
As to the kind of experiment: Agonist activity at FXR LBD (unknown origin) transiently transfected in HEK293T cells at 1 uM incubated for 16 hrs by Gal4-hybrid reporter gene based Dual-glo luciferase assay. Format: cell-based.

Experiment [6] is described as follows: Selectivity ratio for agonist activity at THRalpha LBD (unknown origin) transiently transfected in HEK293T cells to agonist activity at human Nur77 LBD transiently transfected in HEK293T cells. Format: cell-based.
A short description of experiment [7]: Selectivity ratio for agonist activity at RARalpha LBD (unknown origin) transiently transfected in HEK293T cells to agonist activity at human Nur77 LBD transiently transfected in HEK293T cells. In kind it is cell-based.
Experiment [8] can be described thus: Selectivity ratio for agonist activity at PPARgamma LBD (unknown origin) transiently transfected in HEK293T cells to agonist activity at human Nur77 LBD transiently transfected in HEK293T cells. In kind it is cell-based.
Experiment [9] in a line: Selectivity ratio for agonist activity at PPARdelta LBD (unknown origin) transiently transfected in HEK293T cells to agonist activity at human Nur77 LBD transiently transfected in HEK293T cells. In kind it is cell-based.
Experiment [10] in a line: Selectivity ratio for agonist activity at THRalpha LBD (unknown origin) transiently transfected in HEK293T cells to agonist activity at human Nurr1 LBD transiently transfected in HEK293T cells. In kind it is cell-based.
Experiment [11] can be described thus: Selectivity ratio for agonist activity at RARalpha LBD (unknown origin) transiently transfected in HEK293T cells to agonist activity at human Nurr1 LBD transiently transfected in HEK293T cells. Format: cell-based.
Experiment [12] in a line: Selectivity ratio for agonist activity at PPARalpha LBD (unknown origin) transiently transfected in HEK293T cells to agonist activity at human Nurr1 LBD transiently transfected in HEK293T cells. In kind it is cell-based.
Experiment [13] can be described thus: Selectivity ratio for agonist activity at FXR LBD (unknown origin) transiently transfected in HEK293T cells to agonist activity at human Nurr1 LBD transiently transfected in HEK293T cells. Format: cell-based.
Experiment [14] in a line: Selectivity ratio for agonist activity at RXRalpha LBD (unknown origin) transiently transfected in HEK293T cells to agonist activity at human Nurr1 LBD transiently transfected in HEK293T cells. In kind it is cell-based.
Experiment [15] can be described thus: Selectivity ratio for agonist activity at PPARdelta LBD (unknown origin) transiently transfected in HEK293T cells to agonist activity at human NOR-1 LBD transiently transfected in HEK293T cells. Format: cell-based.
The nature of experiment [16]: Selectivity ratio for agonist activity at VDR LBD (unknown origin) transiently transfected in HEK293T cells to agonist activity at human NOR-1 LBD transiently transfected in HEK293T cells. In kind it is cell-based.
The nature of experiment [17]: Selectivity ratio for agonist activity at FXR LBD (unknown origin) transiently transfected in HEK293T cells to agonist activity at human NOR-1 LBD transiently transfected in HEK293T cells. Format: cell-based.
For experiment [18], the target named is T1, Nuclear receptor subfamily 4 group A member 2. The experiment in a line: Agonist activity at full length human Nurr1 transiently transfected in HEK293T cells co-transfected with pFR-Luc-NurRE incubated for 16 hrs by Gal4-hybrid reporter gene based Dual-glo luciferase assay. Format: cell-based.
Experiment [19] shares this target. The following applies: filed as agonist, dose 100.0 µM.

Nuclear receptor subfamily 4immunitygroup A member 1, sequence (P22736 whole entry, the tested form may be a part): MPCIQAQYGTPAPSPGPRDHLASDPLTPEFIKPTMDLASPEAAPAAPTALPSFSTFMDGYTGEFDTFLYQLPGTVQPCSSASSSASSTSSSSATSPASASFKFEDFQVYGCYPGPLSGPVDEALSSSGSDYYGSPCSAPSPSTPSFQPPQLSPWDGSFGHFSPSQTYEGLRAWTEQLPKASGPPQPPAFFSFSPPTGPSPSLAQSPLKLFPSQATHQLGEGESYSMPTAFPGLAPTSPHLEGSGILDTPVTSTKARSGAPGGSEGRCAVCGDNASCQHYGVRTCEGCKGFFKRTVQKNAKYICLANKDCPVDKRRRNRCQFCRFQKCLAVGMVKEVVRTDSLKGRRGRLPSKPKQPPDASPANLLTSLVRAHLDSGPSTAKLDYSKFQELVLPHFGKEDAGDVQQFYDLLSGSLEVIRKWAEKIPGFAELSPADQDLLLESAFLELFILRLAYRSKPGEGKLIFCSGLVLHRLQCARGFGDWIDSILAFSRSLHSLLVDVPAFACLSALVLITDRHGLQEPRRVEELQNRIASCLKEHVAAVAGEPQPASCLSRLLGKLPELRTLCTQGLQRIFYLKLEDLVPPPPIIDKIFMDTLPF

Consider `CC(C)(C)c1ccc(COc2cccc(C(=O)O)c2)cc1`, for which the maximal response (Emax) (in general, the size of the effect at its maximum, as opposed to the concentration needed) in experiment [1] was 163%. Further, the EC50 (as a rule, the concentration at which the effect is half-maximal) is 0.12 µM in experiment [2], 0.07 µM in experiment [3] and 0.01 µM in [18]. The outcome in [4] and in experiment [5] was inactive. Besides, the Selectivity ratio in experiment [6], in experiment [7], in [8], in [9], in experiment [10] and in experiment [11] was > 30 each time. The Selectivity ratio in experiment [12], in experiment [13], in [14], in experiment [15], in experiment [16] and in [17] was > 30 in each case. Besides, the -TdeltaS in experiment [19] was -5.2 kcal/mol.
